Results taken from patent US20220257491A1, “Prebiotic Oral Care Compositions and Methods” (Colgate-Palmolive Company, priority 2021, published 2022).
Marks after values point to notes of the source that are not given here.

Experiments:
Type in all cases: cell-based
A. actinomycetemcomitans = experiment: Multi-species biofilm composition: absolute abundance of A. actinomycetemcomitans; details: mean±SD n=3
Description: (§1) Biofilms are grown vertically on Calcium Deficient Hydroxyapatite (CAD-HA) disks (Hitemco Medical, Old Bethpage, USA) using the Amsterdam Active Adhesion model. Biofilms are allowed to establish during 24 h (37° C., 170 rpm) under micro-aerophilic conditions (6% O2, 7% CO2, 7% H2, 80% N2). After this 24 h, disks are rinsed 3 times a day for 3 minutes (RT, 250 rpm), for 3 consecutive days, by transferring the lid containing the disks to a new 24-well plate containing 2 mL/well of the appropriate substrate solution. As a negative control, PBS (pH 5.7) without substrate supplementation is used. After each rinsing step, disks are shortly dip-rinsed in a new 24-well plate containing fresh modified BHI medium (2 mL/well) to remove remaining substrate traces. Subsequently, the lid is transferred to another 24-well plate containing fresh modified BHI medium (2 mL/well), followed by incubation (micro-aerophilic, 37° C., 170 rpm) until the next rinsing step.
(§2) NADM, N-acetyl-D-glucosamine (“NADG”) and D-(+)-mannose are selected to determine their effects on multi-species biofilm composition. […] decrease in absolute numbers in at least four of the pathogenic bacterial species tested in the assay, compared to the control, the results of which are described in Table 1 below. Absolute abundances of bacterial species are shown as mean±SD (n=3) logarithmic values of the genome equivalents per millilitre (log(Geq/mL)).

P. gingivalis = experiment: Multi-species biofilm composition: absolute abundance of P. gingivalis; details: mean±SD n=3
Description: as §1, §2

S. mutans = experiment: Multi-species biofilm composition: absolute abundance of S. mutans; details: for Absolute abundance S. mutans: mean±SD n=3
Description: as §1
(§3) NADM, N-acetyl-D-glucosamine (“NADG”) and D-(+)-mannose are selected to determine their effects on multi-species biofilm composition. Repeated rinsing of the biofilms with the substrates at a concentration of 1M results in a significant decrease in absolute numbers in at least four of the pathogenic bacterial species tested in the assay, compared to the control, the results of which are described in Table 1 below. Absolute abundances of bacterial species are shown as mean±SD (n=3) logarithmic values of the genome equivalents per millilitre (log(Geq/mL)).

S. sobrinus = experiment: Multi-species biofilm composition: absolute abundance of S. sobrinus; details: mean±SD n=3
Description: as §1, §2

A. naeslundii = experiment: Multi-species biofilm composition: absolute abundance of A. naeslundii; details: mean±SD n=3
Description: as §1, §3

S. gordonii = experiment: Multi-species biofilm composition: absolute abundance of S. gordonii; details: mean±SD n=3
Description: as §1, §3

S. oralis = experiment: Multi-species biofilm composition: absolute abundance of S. oralis; details: for Absolute abundance S. oralis: mean±SD n=3
Description: as §1, §2

V. parvula = experiment: Multi-species biofilm composition: absolute abundance of V. parvula; details: mean±SD n=3
Description: as §1, §3

[1] = test system: A. actinomycetemcomitans virulence genes; experiment: Multi-species biofilm virulence gene expression, SYBR RT-qPCR: A. actinomycetemcomitans; details: for Fold Change in virulence gene expression: aae / Fold Change in virulence gene expression: apaH / Fold Change in virulence gene expression: cdtB / Fold Change in virulence gene expression: emaA / Fold Change in virulence gene expression: flp / Fold Change in virulence gene expression: ltxA / Fold Change in virulence gene expression: omp29 / Fold Change in virulence gene expression: omp100 / Fold Change in virulence gene expression: orf859 / Fold Change in virulence gene expression: pgA / Fold Change in virulence gene expression: vapA / Fold Change in virulence gene expression: vppA: relative to control (=1), 2^-ΔΔCt, geometric mean n=3
Description: as §1
The expression of 33 virulence genes from 4 periodontal pathogens is analysed to evaluate the relative virulence of the substrate-treated biofilms. For all three substrates, virulence gene expression is determined relatively to the control, and these values are also compared between substrates when this is relevant (Tables 5a-5d).

[2] = test system: human oral keratinocytes (HOK-18A); experiment: Inflammatory mediator gene expression in keratinocytes exposed to substrate-treated biofilms; details: for Fold change in inflammatory mediator gene expression: IL-1β / Fold change in inflammatory mediator gene expression: IL-6 / Fold change in inflammatory mediator gene expression: IL-8 / Fold change in inflammatory mediator gene expression: MMP-8 / Fold change in inflammatory mediator gene expression: TNF-α: relative to control (=1), geometric mean (95% C.I.) n=3
Description: (§4) Cultures of immortalized human oral keratinocytes (HOK-18A) are grown. The relative inflammatory potential of the substrate-treated multi-species biofilms is evaluated by analyzing the expression of five inflammatory mediator genes in human oral keratinocytes (HOKs) exposed to the substrate-treated biofilms. […] The IL-8 levels in the cellular supernatant are determined as well. RNA is converted to cDNA and relative expression of inflammatory mediator genes is determined as described above with respect to the cellular housekeeping gene (3-actin.
In HOKs exposed to substrate-treated (substrate concentrations of 1 M) multi-species biofilms, mostly decreases in inflammatory mediator gene expression are observed and measured via SYBR RT-qPCR, the results of which are detailed in Table 6.
(§5) All substrates are dissolved in PBS at a concentration of 1 M (upper part) or 1% (w/v) (lower part). Values between 0 and 1 represent relative downregulation, values >1 represent relative upregulation. […] For such values, statistically significant differences between two experimental conditions are marked with ‘#1’ (vs. NADM), ‘#2’ (vs. NADG), ‘#3’ (vs. D-(+)-mannose) (P<0.05).

[3] = test system: human oral keratinocytes (HOK-18A); experiment: IL-8 levels in supernatants of keratinocyte cultures exposed to substrate-treated biofilms; details: for IL-8 levels in supernatants of HOK-18A cultures: mean±SD n=3
Description: as §4
as §5, with “Table 7: IL-8 levels detected in the supernatants of human oral keratinocytes (HOK-18A) cultures exposed to substrate-treated multi-species biofilms are shown as mean±SD (n=3) values (pg/mL). All” for “All”

[4] = biofilm rinsed with substrate 1%
[5] = biofilm rinsed with substrate 1M

With `CC(=O)N[C@@H]1C(O)O[C@H](CO)[C@@H](O)[C@@H]1O` (stereo partly drawn) [NADM, N-acetyl-D-mannosamine] the “Absolute abundance Aa (A. actinomycetemcomitans)” value (A. actinomycetemcomitans; substrate 1%(w/v) in PBS) was 9.51 ± 0.05 log(Geq/mL), the “Absolute abundance Aa (A. actinomycetemcomitans)” value (A. actinomycetemcomitans; substrate 1 M in PBS) was 7.84 ± 0.53 log(Geq/mL) and the “Absolute abundance Pg (P. gingivalis)” value (P. gingivalis; substrate 1%(w/v) in PBS) was 7.06 ± 0.30 log(Geq/mL). For the same molecule, the “Absolute abundance Pg (P. gingivalis)” value (P. gingivalis; substrate 1 M in PBS) was 5.42 ± 0.23 log(Geq/mL), the “Decrease in S. mutans vs control” value (S. mutans; substrate 1%(w/v)) was 0.5 log(Geq/mL) and the “Absolute abundance S. mutans” value (S. mutans; substrate 1%(w/v) in PBS) was 7.01 ± 0.05 log(Geq/mL). The “Change in S. mutans numbers compared to the control” value (S. mutans; substrate 1 M) was −1.2 log(Geq/mL), the “Absolute abundance S. mutans” value (S. mutans; substrate 1 M in PBS) was 7.41 ± 0.44 log(Geq/mL) and the “Absolute abundance S. sobrinus” value (S. sobrinus; substrate 1%(w/v) in PBS) was 5.24 ± 0.27 log(Geq/mL). The “Absolute abundance S. sobrinus” value (S. sobrinus; substrate 1 M in PBS) was 6.05 ± 0.23 log(Geq/mL), the “Absolute abundance An (A. naeslundii)” value (A. naeslundii; substrate 1%(w/v) in PBS) was 7.60 ± 0.22 log(Geq/mL) and the “Absolute abundance An (A. naeslundii)” value (A. naeslundii; substrate 1 M in PBS) was 6.73 ± 0.39 log(Geq/mL). For the same molecule, the “Absolute abundance S. gord. (S. gordonii)” value (S. gordonii; substrate 1%(w/v) in PBS) was 8.40 ± 0.10 log(Geq/mL), the “Absolute abundance S. gord. (S. gordonii)” value (S. gordonii; substrate 1 M in PBS) was 8.94 ± 0.32 log(Geq/mL) and the “Absolute abundance S. oralis” value (S. oralis; substrate 1%(w/v) in PBS) was 7.49 ± 0.30 log(Geq/mL). For the same molecule, the “Change in S. oralis numbers compared to the control” value (S. oralis; substrate 1 M) was “+2.5 log(Geq/mL)”, the “Difference in S. oralis numbers compared to NADG” value (S. oralis; substrate 1 M) was “+1.5 log(Geq/mL)” and the “Absolute abundance S. oralis” value (S. oralis; substrate 1 M in PBS) was 9.46 ± 0.24*^, #2 log(Geq/mL). For the same molecule, the “Absolute abundance Vp (V. parvula)” value (V. parvula; substrate 1%(w/v) in PBS) was 10.05 ± 0.17 log(Geq/mL), the “Absolute abundance Vp (V. parvula)” value (V. parvula; substrate 1 M in PBS) was 10.76 ± 0.09 log(Geq/mL) and the “Fold Change in virulence gene expression: aae” value ([1]; substrate 1% (w/v)) was 0.92 fold. For the same molecule, the “Fold Change in virulence gene expression: apaH” value ([1]; substrate 1% (w/v)) was 0.81 fold, the “Fold Change in virulence gene expression: cdtB” value ([1]; substrate 1% (w/v)) was 0.59 fold and the “Fold Change in virulence gene expression: emaA” value ([1]; substrate 1% (w/v)) was 0.40 fold. For the same molecule, the “Fold Change in virulence gene expression: flp” value ([1]; substrate 1% (w/v)) was 0.35 fold, the “Fold Change in virulence gene expression: ltxA” value ([1]; substrate 1% (w/v)) was 0.29 fold and the “Fold Change in virulence gene expression: omp29” value ([1]; substrate 1% (w/v)) was 0.76 fold. For the same molecule, the “Fold Change in virulence gene expression: omp100” value ([1]; substrate 1% (w/v)) was 0.42 fold, the “Fold Change in virulence gene expression: orf859” value ([1]; substrate 1% (w/v)) was 0.57 fold and the “Fold Change in virulence gene expression: pgA” value ([1]; substrate 1% (w/v)) was 1.07 fold. For the same molecule, the “Fold Change in virulence gene expression: vapA” value ([1]; substrate 1% (w/v)) was 0.82 fold, the “Fold Change in virulence gene expression: vppA” value ([1]; substrate 1% (w/v)) was 1.01 fold and the “A. actinomycetemcomitans gene expression decrease: flp, emaA and omp100” value ([1]; substrate 1%(w/v)) was 2.4- to 2.9 fold. For the same molecule, the “Fold Change in virulence gene expression: aae” value ([1]; substrate 1M) was 0.27 fold, the “Fold Change in virulence gene expression: apaH” value ([1]; substrate 1M) was 0.25 fold and the “Fold Change in virulence gene expression: cdtB” value ([1]; substrate 1M) was 0.31 fold. For the same molecule, the “Fold Change in virulence gene expression: emaA” value ([1]; substrate 1M) was 0.36 fold, the “Fold Change in virulence gene expression: flp” value ([1]; substrate 1M) was 0.85 fold and the “Fold Change in virulence gene expression: ltxA” value ([1]; substrate 1M) was 0.01 fold. For the same molecule, the “Fold Change in virulence gene expression: omp29” value ([1]; substrate 1M) was 0.48 fold, the “Fold Change in virulence gene expression: omp100” value ([1]; substrate 1M) was 0.04 fold and the “Fold Change in virulence gene expression: orf859” value ([1]; substrate 1M) was 0.11 fold. The “Fold Change in virulence gene expression: pgA” value ([1]; substrate 1M) was 3.53 fold, the “Fold Change in virulence gene expression: vapA” value ([1]; substrate 1M) was 0.74 fold and the “Fold Change in virulence gene expression: vppA” value ([1]; substrate 1M) was 0.81 fold. The “Fold change in inflammatory mediator gene expression: IL-1β” value [2, 4] was 0.83 (0.66-1.04) fold, the “Fold change in inflammatory mediator gene expression: IL-6” value [2, 4] was 0.73 (0.48-1.13) fold and the “Fold change in inflammatory mediator gene expression: IL-8” value [2, 4] was 1.32 (1.14-1.53) fold. For the same molecule, the “Fold change in inflammatory mediator gene expression: MMP-8” value [2, 4] was 0.62 (0.21-1.84) fold, the “Fold change in inflammatory mediator gene expression: TNF-α” value [2, 4] was 0.69 (0.48-1.00) fold and the “Fold change in inflammatory mediator gene expression: IL-1β” value [2, 5] was 0.59 (0.30-1.14) fold. The “Fold change in inflammatory mediator gene expression: IL-6” value [2, 5] was 0.86 (0.34-2.18) fold, the “Fold change in inflammatory mediator gene expression: IL-8” value [2, 5] was 0.10 (0.05-0.17)* fold and the “Fold change in inflammatory mediator gene expression: MMP-8” value [2, 5] was 1.66 (0.82-3.35)* fold. For the same molecule, the “Fold change in inflammatory mediator gene expression: TNF-α” value [2, 5] was 0.73 (0.64-0.83) fold, the “MMP-8 gene expression increase” value ([2]; substrate 1 M) was 1.7 fold and the “IL-8 levels in supernatants of HOK-18A cultures” value ([3]; biofilm rinsed with substrate 1%(w/v)) was 30.32 ± 6.26 pg/mL. The “IL-8 levels in supernatants of HOK-18A cultures” value [3, 5] was 0.59 ± 0.61 pg/mL and the “Reduced IL-8 levels compared to the control” value ([3]; substrate 1%(w/v)) was 2.4 fold.
